# Experimental data: patent US8088934B2, “Composition and method for stabilizing the same” (SUCAMPO AG, priority 1999, dated 2012)
# What was measured:
# Type in all cases: physicochemical
# [1] = Stability of the compounds stored solely (crystal, without solvent) at 40° C., content by HPLC; conditions: crystal (no solvent), hard glass container
# Experimental: (§1) The above-described compounds 1 and 2 were dissolved in the medium chain fatty acid triglyceride (MCT)^31 at the amount shown in the table 1 below respectively. Each of the solutions was placed in a container made of hard glass and stored at 40° C. The time-course of the content of the compound 1 and 2 in the solutions were determined by HPLC method. The medium chain fatty acid triglyceride used herein was a mixture of caprylic acid triglyceride and capric acid triglyceride (85:15). At the same time, each of the compounds 1 and 2 was placed solely (without being dissolved in the solvent) in the container as above and stored at 40° C. to provide control study.
# (1) Under the absence of the solvent, the content of the compound was determined as follows (HPLC method).
# The stored compounds 1 and 2, and standard compounds 1 and 2 were weighed precisely around 0.025 g each, and exactly 5 ml aliquots of an internal standard solution were added to the respective weighed compounds. Then the test and standard preparations were obtained by adding acetonitrile (liquid chromatograph grade) to give the precise total amount of 10 ml each. Each 10 μl of the test and standard preparations was loaded on liquid chromatograph and determined the content of the compound by internal standard method with one point calibration curve.
# [formula] Ws: The amount of the compound in the standard preparation (mg) WT: The amount of the compound 1 or 2 in the test preparation QS: Peak area ratio of the compound in the standard preparation to the internal standard. QT: Peak area ratio of the compound in the test preparation to the internal standard. Measurement Conditions Detector: Ultraviolet absorption spectrophotometer (wavelength: 294 nm) Column: A stainless tube having about 5 mm of internal diameter and about 25 cm of length, packed with 5 μm octadecylsilyl silica gel for liquid chromatograph Column temperature: Stable at around 35° C. Mobile phase: Mixed solution of acetonitrile (liquid chromatograph grade)/aqueous sodium acetate (0.01 mol/l)/glacial acetic acid (800:200:1) (2) Under the presence of the solvent, the content of the compound was determined as follows (HPLC method).
# [2] = Stability of the compounds dissolved in medium chain fatty acid triglyceride (MCT) stored at 40° C., content by HPLC; conditions: for stability on admixing with the glyceride (conclusion from Table 1): MCT versus crystal; for content of the compound stored at 40° C., 14 days / content of the compound stored at 40° C., initial: in MCT (compound 1: 0.36 mg/g; compound 2: 0.12 mg/g)
# Experimental: as §1
# (§2) Based on the value expressed in the table 1, an amount of the solution corresponding to 36 μg of the compound 1 or 2 was weighted precisely. Precisely 1.0 ml of an internal standard solution was added, and then ethyl acetate (liquid chromatograph grade) was added to give the total amount of 10 ml each. Each 0.1 ml of the solution was vacuum concentrated to dryness to give the test preparation.
# (§3) Each 18 mg of the respective standard compounds was weighted precisely and admixed with ethyl acetate (liquid chromatograph grade) to give the total amount of exactly 50 ml each. One (1.0) ml of the solution and 10.0 ml of the internal standard solution were measured precisely and admixed with ethyl acetate (liquid chromatograph grade) to give the total amount of 100 ml each. Each 0.1 ml of the solution was vacuum concentrated to dryness to give the standard preparation.
# (§4) To the test and standard preparations, 0.1 ml of fluorescent labeling reagent and 0.85 ml of fluorescent labeling catalyst were added respectively, and the mixture was stirred and reacted at room temperature more than 30 minutes. 0.05 ml aliquots of acetonitrile (liquid chromatograph grade) containing 2% acetic acid were added to the reaction mixtures respectively, stirred and then stand for more than 30 minutes to provide test and standard solutions.
# (§5) Each 10 μl of the test and standard solutions was loaded on liquid chromatograph and determined the content of the respective compounds by internal standard method with one point calibration curve.
# (§6) [formula] WS: The amount of the compound in the standard preparation (mg) QS: Peak area ratio of the compound in the standard preparation to the internal standard QT: Peak area ratio of the compound in the test preparation to the internal standard. Measurement Condition Detector: fluorescent spectrometer (excitation wavelength 259 nm, fluorescent wavelength 394 nm) Column: A stainless tube having about 5 mm of internal diameter and about 25 cm of length, packed with 5 μm octadecylsilyl silica gel for liquid chromatograph Column temperature: Stable at around 35° C. Mobile phase: Mixed solution of acetonitrile (liquid chromatograph grade)/methanol (liquid chromatograph grade)/aqueous ammonium acetate (0.05 mol/l) (4:11:5) The results are shown in Table 1 below.
# [3] = Stability of compound 1 stored at 40° C. for 4 weeks in various solvents and containers, content by HPLC
# Experimental: as §2, §3, §4, §5, §6
# Each of the solutions was placed in a container made of low-density polyethylene (LDPE), hard glass or stainless steel and stored at 40° C. The content of the compound 1 in the solutions after four weeks were determined by HPLC method according to the above described (2) of Example 1 except for using composition shown in table 2 below.
# [4] = Stability of compound 1 stored at 40° C. for 4 weeks in various ratio of MCT to Mineral oil, content by HPLC
# Experimental: as §2, §3, §4, §5, §6
# Each of the solutions was placed in a container made of LDPE and stored at 40° C. The content of the compound in the solutions after four weeks were determined by HPLC method according to the above described (2) of Example 1 except for using composition shown in table 3 below.
smiles,measurement,setting,value
"CCCCC(F)(F)[C@@]1(O)CC[C@H]2[C@@H](CC(=O)[C@@H]2CCCCCCC(=O)O)O1 [compound 1, 7-[(1R,3R,6R,7R)-3-(1,1-difluoropentyl)-3-hydroxy-2-oxabicyclo[4.3.0]nonane-8-one-7-yl]heptanoic acid]","content of the compound stored at 40° C., 7 days",[1]; 7 days,97.2%
same,"content of the compound stored at 40° C., 14 days",[1],94.1%
same,"content of the compound stored at 40° C., 28 days",[1],87.4%
same,"content of the compound stored at 40° C., initial",[1],100%
same,stability on admixing with the glyceride (conclusion from Table 1),[2],significantly improved
same,"content of the compound stored at 40° C., 38 days","[2]; in MCT (compound 1: 0.36 mg/g), hard glass, 38 days",102.1%
same,"content of the compound stored at 40° C., 90 days","[2]; in MCT (compound 1: 0.36 mg/g), hard glass, 90 days",100.9%
same,"content of the compound stored at 40° C., 14 days",[2]; hard glass,101.4%
same,"content of the compound stored at 40° C., initial",[2]; hard glass,100%
same,% to the initial 4 weeks after,"[3]; 10 μg/mL, MCT, LDPE container",100.8%
same,% to the initial 4 weeks after,"[3]; 10 μg/mL, Saline, Hard glass container",18.0%
same,% to the initial 4 weeks after,"[3]; 20 μg/mL, Caster oil, LDPE container",102.9%
same,% to the initial 4 weeks after,"[3]; 20 μg/mL, Corn oil, LDPE container",99.6%
same,% to the initial 4 weeks after,"[3]; 20 μg/mL, Diluted water, Hard glass container",39.6%
same,% to the initial 4 weeks after,"[3]; 20 μg/mL, MCT, Hard glass container",99.5%
same,% to the initial 4 weeks after,"[3]; 20 μg/mL, MCT, Stainless steel container",99.5%
same,% to the initial 4 weeks after,"[3]; 20 μg/mL, Olive oil, LDPE container",99.0%
same,% to the initial 4 weeks after,"[3]; 20 μg/mL, Sesame oil, LDPE container",100.1%
same,stability on admixing with the glyceride (conclusion from Table 2),[3]; glycerides versus water or saline,significantly improved
same,% to the initial 4 weeks after,"[4]; 0.5 μg/mL, MCT/MO (V/V) 1/99, LDPE",91.0%
same,% to the initial 4 weeks after,"[4]; 0.5 μg/mL, MCT/MO (V/V) 2/98, LDPE",96.6%
same,% to the initial 4 weeks after,"[4]; 0.5 μg/mL, MCT/MO (V/V) 5/95, LDPE",98.1%
same,% to the initial 4 weeks after,"[4]; 0.5 μg/mL, MCT/MO (V/V) 10/90, LDPE",99.0%
same,% to the initial 4 weeks after,"[4]; 0.7 μg/mL, MCT/MO (V/V) 0/100, LDPE",88.3%
same,% to the initial 4 weeks after,"[4]; 10 μg/mL, MCT/MO (V/V) 50/50, LDPE",101.9%
same,stability on admixing with the mixture of glyceride and other oil solvent (conclusion from Table 3),[4]; MCT/Mineral oil mixtures,significantly improved
"CC[C@H](C)CC(F)(F)[C@@]1(O)CC[C@H]2[C@@H](CC(=O)[C@@H]2CCCCCCC(=O)O)O1 [compound 2, 7-[(1R,6R,7R)-3-[(3S)-1,1-difluoro-3-methylpentyl]-3-hydroxy-2-oxabicyclo[4.3.0]nonane-8-one-7-yl]heptanoic acid]","content of the compound stored at 40° C., 6 days",[1]; 6 days,84.5%
same,"content of the compound stored at 40° C., 14 days",[1],75.0%
same,"content of the compound stored at 40° C., 28 days",[1],53.4%
same,"content of the compound stored at 40° C., initial",[1],100%
same,stability on admixing with the glyceride (conclusion from Table 1),[2],significantly improved
same,"content of the compound stored at 40° C., 14 days",[2]; hard glass,99.6%
same,"content of the compound stored at 40° C., initial",[2]; hard glass,100%
same,"content of the compound stored at 40° C., 28 days","[2]; in MCT (compound 2: 0.12 mg/g), hard glass, 28 days",98.9%
same,"content of the compound stored at 40° C., 191 days","[2]; in MCT (compound 2: 0.12 mg/g), hard glass, 191 days",99.6%
